We go through one compound from US4185010A, “Nonapeptides” (American Home Products Corporation, priority 1978, dated 1980).

Common to all, as to assay type: in vivo
The test system of one experiment is growth hormone (GH). In words: Arginine-stimulated hormone release in Nembutal-anesthetized rats, growth hormone by radioimmunoassay. The conditions noted are these: albino male rats, 1,000 μg/kg subcutaneous, blood 15 min after dose (5 min after arginine); control 454 ± 106. The method, then:
(§1) Albino male rate are administered Nembutal intraperitoneally at a dose of 50 milligrams per kilogram. Fifteen minutes later a subcutaneous injection of the test compound or physiological saline (control) is administered. Ten minutes later 0.5 milliliters of arginine (300 milligrams per milliliter, pH 7.2) is injected into the heart. Five minutes after receipt of the arginine the rats are decapitated and blood is collected into trasylol-EDTA. An appropriate aliquot is assayed for growth hormone (GH), insulin, and glucagon by radioimmunoassay.

The next experiment concerns glucagon. In words: Arginine-stimulated hormone release in Nembutal-anesthetized rats, glucagon by radioimmunoassay. The method, then:
as §1

For another experiment, the system named is insulin. In words: Arginine-stimulated hormone release in Nembutal-anesthetized rats, insulin by radioimmunoassay. The conditions noted are these: albino male rats, 1,000 μg/kg subcutaneous, blood 15 min after dose (5 min after arginine); control 269 ± 37. The protocol:
as §1

Molecules are shown by their SMILES. Where a SMILES comes first, the peptide text is derived from it. Bridges are numbered along the chain shown (N, C = ends). [ ]: non-standard residue; d: D form. Abu = CC[C@H](N)C(=O)O

In turn, `CC[C@@H]1NC(=O)[C@H](CCCCN)NC(=O)[C@@H](Cc2c[nH]c3ccccc23)NC(=O)[C@H](Cc2ccccc2)NC(=O)[C@H](Cc2ccccc2)NC(=O)[C@H](Cc2c[nH]cn2)NC(=O)[C@@H](N)CSSC[C@@H](C(=O)O)NC(=O)[C@H](Cc2ccccc2)NC1=O` [Example 2, L-Cysteinyl-L-histidyl-L-phenylalanyl-L-phenylalanyl-D-tryptophyl-L-lysyl-L-α-aminobutyryl-L-phenylalanyl-L-cysteine cyclic (1-9) disulfide] (H-CHFF[dW]K[Abu]FC-OH; disulfide 1-9) showed a GH in the experiment on growth hormone (GH) of 413 ± 98 ng/mL. The GLUN in the experiment on glucagon (albino male rats, 1,000 μg/kg subcutaneous, blood 15 min after dose (5 min after arginine), control 60 ± 10, p<0.05) stood at 31 ± 5 pg/mL. In the experiment with glucagon (without materially altering blood serum growth hormone and insulin levels), the “selective inhibition of glucagon release versus growth hormone and insulin levels” value was “selectively inhibit glucagon release”. The compound further came in with an INS in the experiment with insulin of 262 ± 39 μU/ml.
